# Test results from ChEMBL document CHEMBL1154681, “Structural aspects of flavonoids as inhibitors of human butyrylcholinesterase” (Eur J Med Chem, 2010).
# The source made the active and inactive calls. The rule behind the calls is not given here.
# Tests used:
# Acetylcholinesterase = Acetylcholinesterase (Homo sapiens, UniProt P22303); test: Inhibition of human recombinant AChE by Ellman's method
# Cholinesterase [1] = molecular target: T1, Cholinesterase (Homo sapiens, UniProt P06276); test: Inhibition of human plasma BChE by Ellman's method
# [2] = Stability in phosphate buffer at pH 7.4 after 90 mins by spectrophotometry; format: physicochemical; details: pH 7.4, 1.5 h
# A549 = test: Cytotoxicity against human A549 cells upto 200 umol/L after 24 hrs by MTS assay; format: cell-based; details: a549, 24 h
# HepG2 = test: Cytotoxicity against human HepG2 cells upto 200 umol/L after 24 hrs by MTS assay; format: cell-based; details: hepg2, 24 h
# THP-1 = test: Cytotoxicity against human THP1 cells after 24 hrs by MTS assay; format: cell-based
# Cholinesterase [3] = molecular target: T1, Cholinesterase; test: Inhibition of human plasma BChE upto 45 mins at 100 umol/L by Ellman's method; format: cell-free
# T1 sequence (P06276 whole entry): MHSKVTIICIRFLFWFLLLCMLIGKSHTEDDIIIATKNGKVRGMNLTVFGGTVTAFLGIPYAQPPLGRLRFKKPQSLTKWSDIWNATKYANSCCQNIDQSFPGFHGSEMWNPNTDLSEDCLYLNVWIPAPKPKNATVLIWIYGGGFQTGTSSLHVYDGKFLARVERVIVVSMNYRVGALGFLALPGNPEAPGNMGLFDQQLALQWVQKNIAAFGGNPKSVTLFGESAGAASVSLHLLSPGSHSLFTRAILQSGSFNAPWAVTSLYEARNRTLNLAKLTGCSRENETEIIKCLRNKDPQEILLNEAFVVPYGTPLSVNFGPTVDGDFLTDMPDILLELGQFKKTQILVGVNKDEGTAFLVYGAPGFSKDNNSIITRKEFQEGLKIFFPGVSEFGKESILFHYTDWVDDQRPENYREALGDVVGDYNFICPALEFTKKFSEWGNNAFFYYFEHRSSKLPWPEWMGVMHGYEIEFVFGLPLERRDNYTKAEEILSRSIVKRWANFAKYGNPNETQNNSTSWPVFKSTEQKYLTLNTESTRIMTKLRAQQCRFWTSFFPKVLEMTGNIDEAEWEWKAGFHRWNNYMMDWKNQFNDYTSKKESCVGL
# Chain of Acetylcholinesterase (P22303 whole entry): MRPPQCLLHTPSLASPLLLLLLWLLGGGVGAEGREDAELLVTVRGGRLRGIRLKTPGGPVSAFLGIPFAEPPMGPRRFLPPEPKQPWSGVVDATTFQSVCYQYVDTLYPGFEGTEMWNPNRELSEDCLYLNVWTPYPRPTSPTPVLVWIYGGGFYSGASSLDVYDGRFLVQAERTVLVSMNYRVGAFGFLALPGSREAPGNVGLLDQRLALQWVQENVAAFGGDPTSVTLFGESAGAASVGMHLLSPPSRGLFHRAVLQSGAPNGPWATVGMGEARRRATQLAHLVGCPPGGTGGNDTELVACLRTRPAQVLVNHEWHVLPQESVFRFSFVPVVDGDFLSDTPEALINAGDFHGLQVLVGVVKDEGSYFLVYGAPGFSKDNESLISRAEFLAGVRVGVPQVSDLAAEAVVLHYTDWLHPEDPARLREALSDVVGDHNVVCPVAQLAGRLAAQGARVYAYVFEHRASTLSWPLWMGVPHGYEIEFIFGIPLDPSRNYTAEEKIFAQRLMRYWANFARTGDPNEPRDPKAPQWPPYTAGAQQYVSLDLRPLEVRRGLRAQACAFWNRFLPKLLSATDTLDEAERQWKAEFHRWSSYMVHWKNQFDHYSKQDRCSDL
Structure (SMILES),Ki (Acetylcholinesterase) [microM/L],Ki (Cholinesterase [1]) [microM/L],Stability [2],Activity (A549),Activity (HepG2),IC50 (THP-1) [microM/L],inhibition (Cholinesterase [3])
O=c1c(O)c(-c2ccccc2)oc2cc(O)cc(O)c12 [GALANGIN],85.6,6.9,Unstable,Non-toxic,Non-toxic,–,–
O=c1c(O)c(-c2ccc(O)c(O)c2)oc2cc(O)cc(O)c12 [QUERCETIN],38.3,68,Unstable,Non-toxic,Non-toxic,–,–
O=c1c(O)c(-c2ccc(O)c(O)c2)oc2cc(O)ccc12 [FISETIN],100.2,90,Unstable,Non-toxic,Non-toxic,30,–
O=c1cc(-c2ccc(O)c(O)c2)oc2cc(O)cc(O)c12 [LUTEOLIN],65.8,166.1,Unstable,Non-toxic,Non-toxic,70,–
O=c1c(O)c(-c2ccc(O)cc2)oc2cc(O)cc(O)c12 [KAEMPFEROL],92.8,43.1,Unstable,Non-toxic,Non-toxic,–,inactive
O=c1c(O)c(-c2cc(O)c(O)c(O)c2)oc2cc(O)cc(O)c12 [MYRICETIN],37.8,71,–,Non-toxic,Non-toxic,–,inactive
O=c1cc(-c2ccc(O)cc2)oc2cc(O)cc(O)c12 [APIGENIN],121.6,37.4,Unstable,Non-toxic,Non-toxic,60,–
C[C@@H]1O[C@@H](OC[C@H]2O[C@@H](Oc3c(-c4ccc(O)c(O)c4)oc4cc(O)cc(O)c4c3=O)[C@H](O)[C@@H](O)[C@@H]2O)[C@H](O)[C@H](O)[C@H]1O [RUTIN],> 300,501.2,Stable,Non-toxic,Non-toxic,–,–
